Reference: ChEMBL document CHEMBL1201862, “PubChem BioAssay data set” (2004)
Calls of active or inactive are those of the source.

Legend:
[1] = molecular target: Glyceraldehyde-3-phosphate dehydrogenase (Homo sapiens, UniProt P04406)
[2] = cytotoxicity in HEK-293T cells, dose response, cytotoxicity control for BCR NF-kB inhibitor project, luminescence, B-cell screen hits (AID 489021); format: functional, cell-based;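 also: HEK-293T cells carrying an NF-kB luciferase reporter; cells exposed to compound for about 14 hours before viability readout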
CAAX prenyl protease 2 = molecular target: T1, CAAX prenyl protease 2 (Saccharomyces cerevisiae S288c, UniProt Q03530); format: biochemical
T1 sequence (Q03530 whole entry): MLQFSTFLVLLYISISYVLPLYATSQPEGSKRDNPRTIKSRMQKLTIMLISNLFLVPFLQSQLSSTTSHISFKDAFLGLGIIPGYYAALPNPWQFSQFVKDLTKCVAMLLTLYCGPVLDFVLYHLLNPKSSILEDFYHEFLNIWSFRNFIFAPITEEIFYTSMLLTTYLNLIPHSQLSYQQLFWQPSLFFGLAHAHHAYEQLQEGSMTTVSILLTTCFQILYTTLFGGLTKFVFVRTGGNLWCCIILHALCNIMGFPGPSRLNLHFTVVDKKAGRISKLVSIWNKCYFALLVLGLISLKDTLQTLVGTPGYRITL

[3] = ZM109 Env clade C HIV-1 fusion inhibitors, dose response, HeLa effector, CEM target cells, luciferase, cherry-pick (AID 652058); format: functional, cell-based
[4] = inhibitors of HIV Env-driven cell fusion, dose response, cherry-pick (AID 652057); format: functional, cell-based
[5] = inhibitors of clade B AD8 Env fusion, dose response, cell-based, cherry-pick (AID 652062); format: functional;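 also: luciferase signal from cell-cell fusion driven by HIV-1 clade B AD8 Env; potency is for inhibitors of fusion seen as a drop in luminescence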
[6] = CEM21 lymphoblast cell cytotoxicity, dose response, cytotoxicity control for viral fusion inhibitor project, CellTiter-Glo luminescence, cherry-picked (AID 652042); format: functional, cell-based;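 also: potency for signal decrease meaning cytotoxicity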
HeLa = assay: HeLa cell cytotoxicity, dose response, cytotoxicity control for MITF activator project, CellTiter-Glo luminescence, cherry-pick samples (AID 540259); format: functional, cell-based; conditions: Homo sapiens
[7] = molecular target: Heat shock protein HSP 90-alpha (Homo sapiens, UniProt P07900); format: functional, organism-based
[8] = molecular target: T2, Oxysterols receptor LXR-beta (Homo sapiens, UniProt P55055); format: functional, cell-based;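 also: agonist activity at LXR measured by a cell-based luminescence readout across a dose range, run as a counterscreen for daf-12 agonists; HEK293 cells with Gal4-LXR fusion and GAL4-driven luciferase reporter; potency for activation of Gal4-LXR reporter so compounds are agonists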
T2 sequence (P55055 whole entry): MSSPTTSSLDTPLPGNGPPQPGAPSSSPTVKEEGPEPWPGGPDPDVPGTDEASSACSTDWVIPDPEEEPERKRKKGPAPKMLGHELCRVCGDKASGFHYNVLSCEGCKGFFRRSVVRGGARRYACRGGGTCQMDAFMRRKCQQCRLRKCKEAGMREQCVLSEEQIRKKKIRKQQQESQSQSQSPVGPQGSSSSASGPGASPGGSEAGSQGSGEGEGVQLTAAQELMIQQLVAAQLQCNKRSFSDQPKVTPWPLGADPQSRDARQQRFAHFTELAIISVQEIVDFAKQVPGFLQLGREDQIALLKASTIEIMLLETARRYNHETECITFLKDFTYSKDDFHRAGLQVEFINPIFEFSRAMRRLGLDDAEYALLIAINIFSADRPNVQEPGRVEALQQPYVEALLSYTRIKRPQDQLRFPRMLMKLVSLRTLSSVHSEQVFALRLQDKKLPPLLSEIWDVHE

[9] = Luminescence Cell-Based Dose Retest to Confirm Inhibitors of Cancer Stem Cells. [Related pubchem assays (depositor defined):AID2717, AID2721]; format: functional; conditions: Homo sapiens
cells [10] = format: functional
[11] = molecular target: T3, High affinity choline transporter 1 (Homo sapiens, UniProt Q9GZV3); assay: CHT inhibitors, dose response, cell-based, 5-point CRC, membrane potential dye (AID 504840); format: functional
T3 sequence (Q9GZV3 whole entry): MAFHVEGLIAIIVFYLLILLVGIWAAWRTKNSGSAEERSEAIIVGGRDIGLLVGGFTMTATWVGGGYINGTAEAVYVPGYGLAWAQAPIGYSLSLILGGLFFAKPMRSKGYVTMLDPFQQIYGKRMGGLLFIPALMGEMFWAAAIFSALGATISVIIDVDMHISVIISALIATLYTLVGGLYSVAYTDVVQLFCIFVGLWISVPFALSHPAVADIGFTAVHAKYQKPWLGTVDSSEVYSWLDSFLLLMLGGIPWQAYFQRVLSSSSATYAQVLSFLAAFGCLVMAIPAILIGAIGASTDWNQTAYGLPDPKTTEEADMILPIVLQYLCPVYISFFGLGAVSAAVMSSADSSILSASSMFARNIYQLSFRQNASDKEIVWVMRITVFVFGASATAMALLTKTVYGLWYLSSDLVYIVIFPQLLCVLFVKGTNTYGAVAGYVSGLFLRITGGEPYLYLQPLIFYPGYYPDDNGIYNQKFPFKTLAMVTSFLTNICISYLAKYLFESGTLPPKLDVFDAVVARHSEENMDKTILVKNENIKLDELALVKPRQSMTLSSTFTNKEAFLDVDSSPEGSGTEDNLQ

Nonstructural protein 1 = Nonstructural protein 1 (Influenza A virus, UniProt Q194T2); format: functional, Influenza A virus (A/California/07/2009(H1N1))
Genome polyprotein = Genome polyprotein (dengue virus type 2, UniProt P29990); assay: Dengue-2 NS5 methyltransferase inhibitors, primary screen, biochemical, confirmation dose response (AID 588689); format: functional
[12] = molecular target: Glucose-6-phosphate 1-dehydrogenase (Homo sapiens, UniProt P11413); assay: human G6PD enzyme inhibitors, dose response, selectivity assay for P. falciparum G6PD inhibitor project, biochemical, fluorescence (AID 504792); format: functional
[13] = molecular target: Induced myeloid leukemia cell differentiation protein Mcl-1 (Homo sapiens, UniProt Q07820); format: functional
BJ [14] = assay: cytotoxicity toward BJ-TERT fibroblasts, dose response, cell-based, RAS-independent, luminescence (AID 1933); format: functional; conditions: Homo sapiens
BJ [15] = assay: cytotoxicity toward BJ-TERT-LT-ST fibroblasts, dose response, cell-based, RAS-independent, luminescence (AID 1935); format: functional; conditions: Homo sapiens;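 also: BJ fibroblasts immortalized with TERT plus LT and ST oncogenes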
[16] = cytotoxicity toward DRD oncogenic fibroblasts, dose response, cell-based, non-viral oncogenic, luminescence (AID 1934); format: functional; conditions: Homo sapiens
BJ [17] = assay: cells; format: functional, cell-based; conditions: Homo sapiens
H4 = assay: Luminescence Cell-Based Dose Response HTS to Identify Activators of 5'UTR Stem-Loop Driven Prion Protein mRNA Translation in H4 Neuroglioblastoma Cells. [Related pubchem assays: 1829 (Project Summary), 1814 (Primary HTS)]; format: functional; conditions: Homo sapiens
[18] = inhibitors of intracellular T. cruzi replication, confirmation, NIH3T3 host cells, beta-gal luminescence (AID 2044); format: functional, cell-based;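 also: intracellular parasites grown in NIH/3T3 mouse fibroblasts as host cells; luminescent beta-galactosidase reporter signal from transgenic T. cruzi replicating inside host cells; inhibitors lower the luminescence signal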
Vero [19] = assay: cells; format: functional; conditions: Chlorocebus sabaeus
[20] = molecular target: T4, Carboxy-terminal domain RNA polymerase II polypeptide A small phosphatase 1 (Homo sapiens, UniProt Q9GZU7); assay: inhibitors of CTDSP1, concentration-response testing, biochemical assay, absorbance-based, actives from ultra-high-throughput screening (AID 540297); format: functional
T4 sequence (Q9GZU7 whole entry): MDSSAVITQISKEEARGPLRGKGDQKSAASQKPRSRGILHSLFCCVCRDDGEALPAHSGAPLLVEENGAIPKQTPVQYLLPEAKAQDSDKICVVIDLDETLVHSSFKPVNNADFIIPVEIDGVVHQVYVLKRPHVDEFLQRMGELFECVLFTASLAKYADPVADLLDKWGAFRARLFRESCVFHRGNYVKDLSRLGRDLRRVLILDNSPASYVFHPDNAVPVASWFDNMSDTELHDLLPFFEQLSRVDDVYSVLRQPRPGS

Vero [21] = assay: Vero cell cytotoxicity, cytotoxicity control for flavivirus capping enzyme inhibitors (AID 588742); format: functional; conditions: Chlorocebus sabaeus
cells [22] = format: functional, cell-based
cells [23] = format: functional, cell-based; remark: listed apart in the source

Sequence of Nonstructural protein 1 (Q194T2 whole entry): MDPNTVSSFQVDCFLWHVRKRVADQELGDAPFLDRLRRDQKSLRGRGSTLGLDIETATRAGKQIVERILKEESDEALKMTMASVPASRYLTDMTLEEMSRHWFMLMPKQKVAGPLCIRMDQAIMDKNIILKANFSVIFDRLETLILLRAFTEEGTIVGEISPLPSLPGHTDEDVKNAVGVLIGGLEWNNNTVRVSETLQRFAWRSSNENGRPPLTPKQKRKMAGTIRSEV
Sequence of Genome polyprotein (P29990 2492-3391 limits assumed): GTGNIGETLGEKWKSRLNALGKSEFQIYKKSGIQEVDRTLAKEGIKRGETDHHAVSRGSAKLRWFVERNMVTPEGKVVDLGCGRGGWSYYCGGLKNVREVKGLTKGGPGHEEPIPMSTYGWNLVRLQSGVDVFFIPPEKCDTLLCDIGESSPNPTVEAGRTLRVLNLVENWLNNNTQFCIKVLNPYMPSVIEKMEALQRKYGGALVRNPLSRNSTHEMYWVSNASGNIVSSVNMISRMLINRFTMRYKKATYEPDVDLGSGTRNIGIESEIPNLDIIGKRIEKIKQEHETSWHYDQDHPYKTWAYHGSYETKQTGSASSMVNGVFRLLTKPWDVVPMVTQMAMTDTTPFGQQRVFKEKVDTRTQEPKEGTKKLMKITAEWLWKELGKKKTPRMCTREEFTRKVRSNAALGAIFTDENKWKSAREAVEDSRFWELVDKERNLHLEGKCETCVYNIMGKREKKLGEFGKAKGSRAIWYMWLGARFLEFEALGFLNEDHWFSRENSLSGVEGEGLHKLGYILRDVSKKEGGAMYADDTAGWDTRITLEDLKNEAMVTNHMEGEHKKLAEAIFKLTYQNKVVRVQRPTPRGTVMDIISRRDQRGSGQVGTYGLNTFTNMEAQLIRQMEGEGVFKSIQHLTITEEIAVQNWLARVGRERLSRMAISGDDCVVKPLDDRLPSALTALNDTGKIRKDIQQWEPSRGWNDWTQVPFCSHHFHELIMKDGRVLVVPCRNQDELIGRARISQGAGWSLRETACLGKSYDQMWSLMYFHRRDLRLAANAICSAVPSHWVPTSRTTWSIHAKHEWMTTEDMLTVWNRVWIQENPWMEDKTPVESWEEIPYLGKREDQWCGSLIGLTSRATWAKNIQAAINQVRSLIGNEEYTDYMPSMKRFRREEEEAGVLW
Sequence of Induced myeloid leukemia cell differentiation protein Mcl-1 (Q07820 whole entry): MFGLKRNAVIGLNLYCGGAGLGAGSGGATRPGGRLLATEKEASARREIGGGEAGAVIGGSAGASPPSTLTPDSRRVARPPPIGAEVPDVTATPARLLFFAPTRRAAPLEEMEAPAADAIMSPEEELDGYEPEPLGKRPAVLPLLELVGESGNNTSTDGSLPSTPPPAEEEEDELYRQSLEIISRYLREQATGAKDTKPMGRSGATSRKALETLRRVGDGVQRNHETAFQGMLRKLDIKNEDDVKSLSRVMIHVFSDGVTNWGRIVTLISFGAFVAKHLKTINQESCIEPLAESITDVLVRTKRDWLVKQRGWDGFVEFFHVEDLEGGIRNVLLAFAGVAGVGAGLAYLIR
Sequence of Glucose-6-phosphate 1-dehydrogenase (P11413 whole entry): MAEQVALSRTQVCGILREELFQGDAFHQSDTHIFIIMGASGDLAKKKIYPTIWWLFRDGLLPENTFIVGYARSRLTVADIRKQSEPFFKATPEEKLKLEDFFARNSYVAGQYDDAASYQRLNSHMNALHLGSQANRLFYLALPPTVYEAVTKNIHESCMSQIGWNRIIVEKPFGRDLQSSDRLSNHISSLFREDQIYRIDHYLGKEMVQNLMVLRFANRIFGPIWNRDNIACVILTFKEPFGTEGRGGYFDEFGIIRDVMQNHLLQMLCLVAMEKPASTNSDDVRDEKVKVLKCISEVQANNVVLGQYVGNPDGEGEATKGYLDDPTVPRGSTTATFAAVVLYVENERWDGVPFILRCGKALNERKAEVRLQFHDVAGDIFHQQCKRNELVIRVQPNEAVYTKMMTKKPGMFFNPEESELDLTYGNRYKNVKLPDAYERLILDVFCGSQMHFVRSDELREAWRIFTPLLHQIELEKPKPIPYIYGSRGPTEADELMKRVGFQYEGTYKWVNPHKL
Sequence of Glyceraldehyde-3-phosphate dehydrogenase (P04406 whole entry): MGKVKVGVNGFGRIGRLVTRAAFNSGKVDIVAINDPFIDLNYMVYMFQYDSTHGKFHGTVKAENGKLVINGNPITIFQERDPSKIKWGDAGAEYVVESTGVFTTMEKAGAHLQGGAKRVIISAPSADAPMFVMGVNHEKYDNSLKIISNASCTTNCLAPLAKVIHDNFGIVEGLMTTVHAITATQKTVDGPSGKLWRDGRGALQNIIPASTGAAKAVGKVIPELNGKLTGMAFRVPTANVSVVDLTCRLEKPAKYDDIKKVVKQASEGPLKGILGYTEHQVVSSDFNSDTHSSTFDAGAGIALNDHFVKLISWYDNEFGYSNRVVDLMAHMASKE

Cc1ccc(SCC(=O)Nc2nnc[nH]2)cc1
IC50 [1]: > 10 µM (inconclusive)

CCOc1cc2nc(-c3ccc(OC)c(OC)c3)nc(N3CCOCC3)c2cc1OC
IC50 [2]: > 80 µM (inactive)

C#CCN(Cc1ccccc1)S(=O)(=O)C=C
IC50 [2]: > 80 µM (inactive)

CN1CCN(C(=O)c2ccc(-c3cccs3)s2)CC1
AC50 (CAAX prenyl protease 2): 32.5 µM (active)

CO[C@@H](CN(C)S(=O)(=O)c1ccc(Cl)cc1)[C@H](C)CN([C@@H](C)CO)S(=O)(=O)c1cccc(Cl)c1
AC50 [3]: 19.1 µM (active) | AC50 [4]: 20 µM (active) | AC50 [5]: 8.73 µM (active)

CC(C)C#Cc1ccc2c(c1)O[C@@H](CN(C)C(=O)C1CCCCC1)[C@H](C)CN([C@H](C)CO)S2(=O)=O
AC50 [6]: 21.3 µM (active) | AC50 [4]: 21.2 µM (active)

Cc1ccc(N=Nc2ccc(O)cc2)c(Br)c1
AC50 (HeLa): 39.2 µM (active) | AC50 [7]: 7.83 µM (active) | EC50 [8]: > 67.5 µM (inactive) | AC50 [9]: 6.26 µM (active)

Nc1nnc(Sc2ncccc2[N+](=O)[O-])s1
IC50 (cells [10]): 15.3 µM (active)

Cc1ccc(-n2ncc3c2CCCC3NC(=O)c2ccccc2N2CCOCC2)cc1C (centres undefined)
AC50 [7]: 0.984 µM (active)

CCCCc1ccc(NC(S)=NCC2CCCO2)cc1 (centres undefined)
IC50 [11]: 15.8 µM (active)

Cc1ccccc1N=C(S)N(CCN(C)C)C(C)c1ccccn1 (centres undefined)
IC50 (Nonstructural protein 1): 64.5 µM (active)

O=C(O)C(Cc1ccccc1)N1C(=O)C=CC1=O (centres undefined)
IC50 (Genome polyprotein): > 100 µM (active) | IC50 [12]: > 80 µM (inactive)

Cc1ccc(-n2ncc3ccccc3c2=O)cc1Cl
EC50 [8]: > 67.6 µM (inactive)

COCCN1Cc2cccc(C(=O)Nc3cccc(C)c3C)c2C1=O
IC50 [13]: 6.79 µM (not active)

CCn1c(=O)c2cc(C(=O)NC(C)C)sc2c2ccccc21
IC50 [2]: 27.6 µM (inactive)

O=C(C[C@H]1CC[C@@H](NC(=O)c2ccccc2)[C@H](CO)O1)NCc1ccc(Oc2ccccc2)cc1
AC50 [6]: 62.1 µM (active) | AC50 [3]: 0.349 µM (active) | AC50 [4]: 3.8 µM (active) | AC50 [5]: 4.3 µM (active)

COc1ccc(/C=N/n2cnc3c4cc(F)ccc4nc-3c2O)cc1CN1CCCC1
EC50 (BJ [14]): 5.03 µM (inconclusive) | EC50 (BJ [15]): 4.92 µM (active) | EC50 [16]: 5.47 µM (inconclusive) | EC50 (BJ [17]): 9.17 µM (inconclusive)

O=C(CCCc1ccccc1)NC12CC3CC(CC(C3)C1)C2
EC50 (H4): > 120 µM (not active) | EC50 [8]: > 67.5 µM (inactive)

CC(C)N1C(=O)/C(=C\c2nc3ccccc3c(=O)n2-c2ccccc2)c2ccccc21
EC50 [18]: 1.36 µM (active) | IC50 (Nonstructural protein 1): 50.5 µM (active) | AC50 [9]: 8.71 µM (active)

CCN(Cc1ccccc1)S(=O)(=O)c1ccc(C(=O)N(CCCN(C)C)c2nc3ccc(F)cc3s2)cc1
CC50 (Vero [19]): > 25 µM (active)

CC(C)N1CCN(Cc2ccc(OCc3ccccc3)cc2)CC1CCO (centres undefined)
AC50 (CAAX prenyl protease 2): 72.9 µM (active) | AC50 [9]: 3.36 µM (active)

Cc1ccc(S(=O)(=O)N2CCOCC2)cc1NC(=O)CNCc1ccccn1
IC50 (Nonstructural protein 1): 18 µM (active)

CCOc1ccc(/C=C2\SC(=S)N(CCC(=O)Nc3ccc(C(=O)O)cc3)C2=O)cc1
IC50 [2]: > 80 µM (inactive) | IC50 [20]: 1.88 µM (active)

COc1ccc(-c2cc(C(F)(F)F)c3c(=O)n(-c4ccccc4)[nH]c3n2)cc1
CC50 (Vero [21]): > 40 µM (active) | IC50 (Genome polyprotein): 44.2 µM (active)

Nc1ccc(C2=Nc3cccc4cccc(c34)N2)cc1
IC50 [13]: 2.86 µM (active)

Fc1ccc(-c2nc3c(-c4ccccc4)cnn3cc2CCN2CCOCC2)cc1
IC50 [11]: 13.2 µM (active)

O=C(/C=C/c1ccccc1)NCCc1nc2ccccc2[nH]1
EC50 (cells [22]): > 350 µM (not active) | EC50 (cells [23]): > 350 µM (not active)

OC(c1ccccn1)(c1ccccn1)c1ccccn1
IC50 (Nonstructural protein 1): 10.9 µM (active)

Sc1nc2c[nH]c(S)nc-2n1
IC50 [12]: > 80 µM (inactive)

O=C(C1=NN[C@@H]2C(=O)N(c3cccc(C(F)(F)F)c3)C(=O)[C@H]12)C(c1ccccc1)c1ccccc1
EC50 (cells [22]): > 350 µM (not active) | EC50 (cells [23]): > 350 µM (not active)

CCOC(=O)c1c(-c2ccc(C)cc2C)csc1NC(=O)CSc1nnnn1C
CC50 (Vero [19]): 23.2 µM (active)

Cc1cc(N/C=C/C(=O)c2ccc(Br)cc2)no1
EC50 (cells [22]): > 350 µM (not active) | EC50 (cells [23]): 59.3 µM (active)

COc1cccc(NC(=O)c2cnc(SC)nc2)c1
IC50 (cells [10]): 15.3 µM (active)

CCCCCCN1C[C@@H](n2cc(COC(=O)c3ccccc3)nn2)[C@H](O)C[C@@H]1c1ccc(C)cc1
CC50 (Vero [19]): > 25 µM (active)

Cc1ccc(CSc2nnc(CCCCCNC(=O)OC(C)(C)C)o2)cc1
EC50 (cells [22]): > 350 µM (not active) | EC50 (cells [23]): > 350 µM (not active)

CN(C)c1ccc(N=Nc2nccs2)cc1
EC50 [8]: > 67.4 µM (inactive)
